Laboratory results reported in patent US7053052B2, “Therapies involving mutated heat shock transcription factor” (priority 1997, dated 2006).

Tested on: HepG2 cells
Experiment: Mortality from exposure to cyclophosphamide (LDH release, mortality)
Details: 20 mM, 24 hour exposure

## O=P1(N(CCCl)CCCl)NCCCO1 (stereo not shown) [cyclophosphamide, reference compound]
  mortality caused by cyclophosphamide: 38%
